What was measured:
[1] = Competitive metal blockade with bismuth subnitrate: renal ^213Bi and ^221Fr activity after ^225Ac labeled HuM195 injection; format: in vivo, mice
Method: (§1) The mice were anesthetized and then injected intravenously in the retro-orbital venous plexus with 0.5 μCi of either ^225Ac labeled HuM195 for chelation, diuresis and competitive metal blockade experiments or of ^225Ac labeled SJ25C1 for tumor burden experiments. The injected volume was 100 μl. In order to detect adequate numbers of disintegrations in tissues by use of the gamma-counter, the injected doses of ^225Ac nanogenerator, i.e., ˜30 μCi/kg, are much higher than the doses for human clinical trials with these adjuvants.
Mice (5 per group) were injected i.p. with 200 μl of 1% bismuth subnitrate (BSN; Sigma, St. Louis, Mo.) suspension (100 mg/kg) or an equal volume of saline (controls) 4 hours before ^225Ac nanogenerator injection. These animals were sacrificed at 6 hours post-injection with the ^225Ac nanogenerator. Alternatively, mice were injected i.p. with 200 μl of 1% BSN suspension, 4 hours before and 8 and 20 hours after ^225Ac nanogenerator injection (n=5) or an equal volume of saline (n=5). These animals were sacrificed 24 hours after ^225Ac nanogenerator injection. The mean % ID/g of ^225Ac, ^221Fr and ^213Bi in blood and kidneys at sacrifice-time was calculated for each experimental group.

[2] = Diuretic therapy, alone or combined with DMPS: renal ^221Fr and ^213Bi activity after ^225Ac labeled HuM195 injection; format: in vivo, mice; conditions: diuretic alone i.p.; 24 hours post-injection
Method: as §1
Mice were randomized to furosemide treatment, chlorthiazide (CTZ) treatment or no treatment(control)groups (5 animals per group). Furosemide and CTZ were administered intraperitoneally (i.p.). The loading doses of furosemide and CTZ were 250 mg/kg and 750 mg/kg respectively, administered one hour before ^225Ac nanogeneratorinjection. The maintenance doses were 100 mg/kg and 300 mg/kg, respectively, administered 12 hours and 24 hours after the loading dose. The controls were injected with an equal volume of saline (vehicle).
Alternatively, mice received DMPS (1.2 mg/ml in drinking water) and either furosemide or CTZ i.p using the same dose schedule as above. The controls received regular drinking water and were injected with an equal volume of saline. The animals were sacrificed at 24 hours post-injection with the labeled antibody and the mean activity (% ID/g) of ^225Ac, ^221Fr and ^213Bi in blood and kidneys was calculated for each experimental group, as described above.

[3] = Tumor burden experiment: ^213Bi activity in kidneys and femurs after ^225Ac labeled SJ25C1, disseminated human Daudi lymphoma; format: in vivo, SCID mice
Method: Disseminated human Daudi lymphoma (84) treated with ^225Ac labeled anti-CD19, was used as the model system. SCID mice, 10-12 weeks old, were randomized to “low tumor burden” or 7 days growth of tumor, “high tumor burden” or 30 days growth of tumor or “high tumor burden+DMPS” group or 30 days growth of tumor and treated with 1.2 mg/ml DMPS in drinking water, starting one day before injection with ^225Ac nanogenerator. All mice were injected intravenously with 5×10^6 Daudi lymphoma cells in 0.1 ml phosphate buffered saline (PBS). The “low burden” animals were injected with the tumor cells 23 days after the “high burden” ones. The animals were checked daily for the onset of hind-leg paralysis. 30 days after injection of tumor cells in the “high burden” animals and 7 days after injection for the “low burden” group, all animals were injected retro-orbitally with 0.5 μCi of ^225Ac labeled SJ25C1 in 100 μl.
The animals (5 per group) were sacrificed at 24 hours post-injection and the mean ^225Ac, ^221Fr and ^213Bi activity (% ID/g) in blood, femurs and kidneys was calculated for each experimental group. The % of human-CD20 positive cells in the femoral bone marrow was estimated in one representative animal from the “high and low burden” groups by flow cytometric staining with phycoerythrin (PE)-conjugated anti-human CD20 (BD, San Jose, Calif.) and compared to that of a non tumor-bearing mouse of the same strain.

[4] = In vivo biodistribution of [Ac]Hum195 at 24 hours in DMPS-treated and untreated monkeys; design: species or system cynomolgus monkeys; conditions: one treated versus one untreated monkey, DMPS in water 24 hours plus one i.v. dose 90 min before sacrifice
Method: Two cynomolgus monkeys weighing about 7 kg were injected with 25 μCi of Ac-225 nanogenerators on HuM195 antibodies. One monkey received water and the other received DMPS in water for 24 hours and one dose of DMPS intravenously 90 min before sacrifice. At 24 hours the two monkeys were sacrificed and the kidneys examined for Bi-213 daughters. A 70% reduction in Bi-213 in the kidneys of the treated monkey was found (FIG. 7).

[5] = cited from earlier work
[6] = Free metal scavenging with DMPS or DMSA: tissue ^213Bi and ^221Fr activity after ^225Ac labeled HuM195 injection; format: in vivo, mice; conditions: for renal ^213Bi activity: chelator in drinking water, mean (SE); for renal ^221Fr activity versus untreated controls: at either 6 hours or 72 hours post-injection
Method: as §1
Animals received either 2,3-dimercapto-1-propanesulfonic acid (DMPS; Sigma, St. Louis, Mo.) or meso-2,3-dimercaptosuccinic acid (DMSA; Sigma, St. Louis, Mo.) in drinking water (1.2 mg/ml and 1.5 mg/ml, respectively), starting one day before injection with ^225Ac nanogenerator and continued until the animals were sacrificed. The control animals received regular drinking water. Animals (n=5 per group) were sacrificed at 6 and 72 hours post-injection by carbon-dioxide asphyxiation.
Samples of blood taken by cardiac puncture, of kidneys, of liver and of small intestine were removed. The organs were washed in distilled water, blotted dry on gauze, weighed, and the activity of ^221Fr (185-250 keV window) and ^213Bi (360-480 keV window) was measured using a gamma counter (COBRA II, Packard Instrument Company, Meriden, Conn.). Samples of the injectate (100 μl) were used as decay correction standards. Adjustment was made for the small percentage of bismuth activity that counted in the francium activity window. Percentage injected dose of ^225Ac, ^221Fr and ^213Bi per gram of tissue weight (% ID/g) was calculated for each animal at the time of sacrifice, using the equation (78):
A2(0)=[A2−A2(eq)·(e^−λ2t−e^−λ1t)]·e^λ2t
where λ1 and λ2 are the decay constants of Ac and Bi, respectively. The mean % ID/g was determined for each experimental group.

CD33 antigen = CD33 antigen (Homo sapiens, UniProt P20138); conditions: on the order of; cited from earlier work
CD33 antigen, sequence (P20138 18-364): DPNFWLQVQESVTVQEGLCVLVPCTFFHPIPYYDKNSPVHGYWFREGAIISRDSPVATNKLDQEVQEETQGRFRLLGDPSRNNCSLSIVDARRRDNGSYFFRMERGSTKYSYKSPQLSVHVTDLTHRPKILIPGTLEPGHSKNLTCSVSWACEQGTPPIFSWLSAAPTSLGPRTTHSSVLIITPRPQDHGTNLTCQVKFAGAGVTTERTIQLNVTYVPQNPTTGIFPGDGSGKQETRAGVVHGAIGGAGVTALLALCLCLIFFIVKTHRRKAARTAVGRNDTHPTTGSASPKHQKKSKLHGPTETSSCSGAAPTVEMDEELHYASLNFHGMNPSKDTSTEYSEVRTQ

Row | Compound | 24 hour renal ^213Bi activity [2] [% ID/g] | 24 hour renal ^221Fr activity [2] [% ID/g] | extent of non-protein sulfhydryl formation in human plasma [5] [%] | mean blood ^213Bi activity ([6]; 6 hours post-injection) [% ID/g] | renal ^213Bi activity ([6]; 6 hours post-injection) [% ID/g] | mean blood ^213Bi activity ([6]; 72 hours post-injection) [% ID/g] | renal ^213Bi activity ([6]; 72 hours post-injection) [% ID/g] | renal ^221Fr activity versus untreated controls [6] | other results
1 | O=[N+]([O-])[O-].O=[N+]([O-])[O-].O=[N+]([O-])[O-].O=[N+]([O-])[O-].[Bi+3].[Bi+3].[Bi+3].[Bi+3].[Bi+3].[O-2].[OH-].[OH-].[OH-].[OH-].[OH-].[OH-].[OH-].[OH-].[OH-] [BSN, bismuth subnitrate] | – | – | – | – | – | – | – | – | renal ^213Bi activity ([1]; 6 hours post-injection, BSN 100 mg/kg i.p. 4 hours before): 46.1±1.4 % ID/g; renal ^213Bi activity ([1]; 24 hours post-injection, BSN i.p. 4 hours before and 8 and 20 hours after): 48.2±0.6 % ID/g; renal ^221Fr activity ([1]; at either time-point (6 hours, 24 hours)): unaltered
2 | NS(=O)(=O)c1cc2c(cc1Cl)N=CNS2(=O)=O [CTZ, chlorthiazide] | 18.6±1.6 | 9.7±0.4 | – | – | – | – | – | – | –
3 | O=S(=O)(O)CC(S)CS (stereo not shown) [DMPS, 2,3-dimercapto-1-propanesulfonic acid] | – | – | 37 | 9.2±0.5 | 38.6±5.5 | 5.5±0.1 | 21.7±2.1 | not significantly different | kidney to femur activity ratio for ^213Bi ([3]; DMPS treated animals bearing the target tumor): significantly lower; renal ^213Bi activity ([3]; high tumor burden + DMPS 1.2 mg/ml in drinking water, 24 hours post-injection): 16.7±2.7 % ID/g; femur ^213Bi activity ([3]; high tumor burden + DMPS, 24 hours post-injection): 4.8±0.6 % ID/g; reduction in Bi-213 in the kidneys [4]: 70%; relative effectiveness in reducing the renal ^213Bi activity ([6]; comparison between chelators): significantly more effective than DMSA
4 | O=C(O)[C@@H](S)[C@@H](S)C(=O)O [DMSA, meso-2,3-dimercaptosuccinic acid] | – | – | 8 | 5.8±0.5 | 66.0±1.9 | 4.8±0.6 | 41.4±7.3 | not significantly different | –
5 | NS(=O)(=O)c1cc(C(=O)O)c(NCc2ccco2)cc1Cl [furosemide] | 18.3±0.6 | 11.8±0.4 | – | – | – | – | – | – | –
6 | HuM195: humanized anti-CD33 IgG1 monoclonal antibody | – | – | – | – | – | – | – | – | affinity (CD33 antigen): 10^−9 to 10^−10 M

— patent US20040191169A1, “Methods of protection from toxicity of alpha emitting elements during radioimmunotherapy” (priority 2003, published 2004)
